In PMC10602545, “Retinal Microenvironment‐Protected Rhein‐GFFYE Nanofibers Attenuate Retinal Ischemia‐Reperfusion Injury via Inhibiting Oxidative Stress and Regulating Microglial/Macrophage M1/M2 Polarization” (Advanced Science, 2023):
Peptide text beside a SMILES is read from it. * marks the point of attachment. X1 = O=C1c2cccc(O)c2C(=O)c2c(O)cc(C(=O)*)cc21

Tests used:
R28 cells [1] = experiment: Safety evaluation under normoxic conditions (ATP and LDH); format: cell-based; conditions: 24 h
Method: (§1) The retinal precursor cell line R28 was purchased from Kerafast (Boston, MA, USA) and cultured according to the procedures recommended by the supplier. Briefly, the cells were grown and maintained in DMEM complete medium containing 420 mL DMEM, 15 mL sodium bicarbonate (Sigma‐Aldrich, St. Louis, MO, USA), 50 mL calf serum, 5 mL MEM non‐essential amino acids, 5 mL L‐glutamine (GIBCO, Grand Island, NY, USA), and 0.625 mL Gentamicin (80 mg mL^−1; Solarbio Life Sciences Co., Ltd, Beijing, China) at 37 °C in a humidified atmosphere containing 5% CO2. The stock solutions of Rh‐GFFYE and control compounds were diluted to varying concentrations with DMEM complete medium just before cell treatment.
(§2) An in vitro OGD model was constructed based on the method detailed by Ryou et al.^[ [56] ^] Briefly, R28 cells were cultured in a glucose‐free medium and subjected to hypoxia (1% O2, 5% CO2) for 24 h. The cells were then re‐oxygenated (21% O2, 5% CO2) for 6 h to simulate RIR. The ATP levels were measured using a CellTiter‐Lumi Plus luminescent cell viability assay (Beyotime, Beijing, China). The cell membrane integrity of the R28 cells was evaluated by LDH release assay (Beyotime, Beijing, China).

[2] = In vivo retinal distribution by CLSM (Cy5.5 label); set-up: species or system rat
Excerpt: To evaluate the distribution of Rh‐GFFYE in RIR‐injured and normal retinas, rats were divided into two groups. At 3, 7, 14, and 21 days after a single intravitreal injection of Cy5.5‐Rh‐GFFYE, the rats were killed and retinas were obtained. Retinal cryosections and retinal whole flat mounts were examined by CLSM to observe the distribution of Rh‐GFFYE in vivo.

[3] = Concentration of rhein in retinas by UPLC-MS/MS; format: in vivo, rat
Method: To further evaluate the concentration of rhein in retinas, the retinas were collected at 7 and 21 days after a single intravitreal injection of Rh‐GFFYE. The retinas were homogenized using a cryogenic homogenizer (ServiceBio, Wuhan, China), and the supernatants were collected after centrifugation for further analysis. The samples were suspended in ethyl acetate and centrifuged for 5 min to obtain the supernatants which were then dried under nitrogen gas flow. The residues were dissolved with mobile phase solution and then quantified using the UPLC‐MS/MS (AB Sciex Triple Quad TM 4500 system, MA, USA) assay.

[4] = In vivo safety evaluation after intravitreal injection; set-up: species or system rat
Excerpt: For safety evaluation, rats were intravitreally injected Rh‐GFFYE nanofibers. 7 days after injection, ERG was used to detect the retinal function and H&E staining was used to detect the morphology of retina. Orbital blood was taken to detect the contents of ALT and AST in plasma. The major organs (heart, liver, spleen, lung, kidney) were harvested for H&E staining to observe changes in each major organ.

rat model of RIR injury [5] = conditions: in vivo
Method: Prior to establishing the model, each anesthetized rat was administered with 0.3% ofloxacin eye drops. Topyramide eye solution was used to dilate the pupil, and proparacaine hydrochloride was used as an eye anesthetic. A 30‐gauge needle containing a balanced salt solution was cannulated into the anterior chamber. […] The sham operation, which served as the control, was performed without elevating the IOP. After 60 min, the needle was withdrawn, the IOP was normal, the posterior segment was pale, and the blood supply was restored, confirming the successful establishment of the RIR injury model. […] During the experiment, each animal's body temperature was kept between 36.5 and 37°C.
At 24 h after establishing the RIR injury model, the rats were randomly divided into five groups: Sham, Saline, Rh‐GFFYE, Ac‐GFFYE, and Nap‐GFFYE. The methods for anesthesia and pupil dilation were the same as described above. Intravitreal injection was accomplished using a Hamilton syringe, and 4 µL of Rh‐GFFYE was injected to obtain a final rhein concentration of 20 µM in the vitreous humor.^[ [58] ^]
Before ERG recording, all the rats were randomly divided into five groups (Sham, Saline, Nap‐GFFYE, Ac‐GFFYE, and Rh‐GFFYE) and adapted in the dark for 12 h. […] For scotopic ERG, the responses to white flashes of 3.00 cd∙s∙m^−2 were recorded. […]

R28 cells [6] = experiment: In vitro OGD model, cellular ATP content (CellTiter-Lumi Plus); format: cell-based; conditions: 24 h pretreatment, varying concentrations (Rh-GFFYE 10, 20, 40 µM); n = 3
Method: as §1
as §2, with “The cells were then re‐oxygenated (21% O2, 5% CO2) for 6 h to simulate RIR.” left out

R28 cells [7] = experiment: Mitochondrial membrane potential, JC-1 staining after OGD; format: cell-based; conditions: 20 µM, 24 h prior to OGD; JC-1, CLSM
Method: A mitochondrial membrane potential assay kit with JC‐1 (Beyotime, Beijing, China) was used to monitor the changes in the mitochondrial membrane potential of R28 cells subjected to OGD following the procedure recommended by the supplier. Briefly, R28 cells were seeded in dishes at a density of 1 × 10^5 mL^−1 cells and cultured overnight. The cells were treated with Rh‐GFFYE, rhein, Nap‐GFFYE, or Ac‐GFFYE at a concentration of 20 µM for 24 h prior to OGD. Following treatment and recovery, the cells were washed three times with PBS and then incubated with 20 µM JC‐1 for 20 min at 37 °C. After removing the JC‐1 staining solution, the cells were washed three times with JC‐1 dyeing buffer, and 2 mL DMEM was added for CLSM imaging.

[8] = test system: bone marrow‐derived macrophages (BMDMs); experiment: LPS-induced cytokine release, ELISA; format: cell-based, mouse; conditions: 20 µM, LPS 100 ng/mL, 24 h
Method: The isolation of mouse BMDMs was performed according to the method of Pineda‐Torra et al.^[ [57] ^] Briefly, the femurs and tibias of C57BL/6 mice were carefully separated and transferred into PBS containing 10% penicillin/streptomycin. The BMDMs were flushed out with a syringe and filtered through a 70‐µm strainer. To further purify the BMDMs, lysis buffer was added to remove the red blood cells. The BMDMs were cultured in a DMEM medium containing macrophage colony‐stimulating factor (MCE, Monmouth Junction, NJ, USA).
BMDMs (1 × 10^5 mL^−1 cells in a volume of 1 mL per well in a 24‐well plate) were pretreated with Rh‐GFFYE, rhein, Nap‐GFFYE, and Ac‐GFFYE at a concentration of 20 µM for 1 h prior to the addition of LPS (100 ng mL^−1) for the specified times (6, 24, and 48 h). The supernatants were collected, and the concentrations of IL‐1β and IL‐6 in the culture medium were measured using ELISA kits (Beyotime, Beijing, China) according to the manufacturer's instructions.

rat model of RIR injury [9] = experiment: Rat RIR injury model, H&E staining of the retina; format: in vivo; conditions: intravitreal 4 µL, 20 µM final in vitreous, 24 h after RIR; 7 days; n = 6
Method: (§3) Erythromycin eye ointment was used to prevent bacterial infection.
The changes in retinal morphology caused by RIR injury were visualized by H&E staining. At 7 days after the intravitreal injection of Rh‐GFFYE, the eyeballs were removed and then fixed in 4% paraformaldehyde. The eye tissue was then embedded in paraffin, and 4‐µm‐thick slices were prepared. The H&E staining procedure described previously was followed.^[ [59] ^]

rat model of RIR injury [10] = experiment: Rat RIR injury model, immunofluorescence of RGC markers (BRN3A, β‐III‐TUBULIN); format: in vivo; conditions: 7 d after intravitreal injection; n = 6
Method: as §3
The RIR‐injured rats were euthanized at 7 days after the intravitreal injection of Rh‐GFFYE. Immediately after removal, the eyeball was fixed in 4% paraformaldehyde for 2 h at 4 °C, dehydrated overnight in 30% sucrose solution, embedded in an optimal cutting temperature compound embedding bottom box (17 × 17 × 5 mm), and stored at −80 °C. Slices with thicknesses of 8 µm were created using a frozen slicer at −22 °C. The slices were placed on adhesive slides and dried at room temperature for >30 min before proceeding to the next step. For immunofluorescent staining, the retinal sections were permeabilized with enhanced immunostaining permeabilization buffer (Beyotime, Beijing, China) for 20 min, blocked with blocking buffer (Beyotime, Beijing, China), and incubated overnight at 4 °C with the following primary antibodies: anti‐β‐III‐TUBULIN, anti‐IBA1, anti‐GFAP, anti‐BRN3A (Abcam, UK), anti‐CD86, and anti‐CD206 (Cell Signaling Technology, Danvers, MA, USA). After rinsing three times with PBS, the sections were incubated with secondary antibodies at room temperature for 2 h, rinsed three times with PBS, and counterstained with DAPI. Sealed with a cover glass, the slides were then observed by CLSM.

R28 cells [11] = experiment: Intracellular ROS, H2DCF-DA staining after OGD; format: cell-based; conditions: 20 µM, 24 h before OGD, CLSM
Method: R28 cells were seeded at a density of 1 × 10^5 mL^−1 cells in 35‐mm glass‐bottom Petri dishes and incubated overnight. Before OGD injury, the cells were treated with Rh‐GFFYE, rhein, Nap‐GFFYE, or Ac‐GFFYE at a concentration of 20 µM for 24 h. The OGD‐injured cells were then assayed for intracellular ROS production by H2DCF‐DA staining. Briefly, the cells were treated with 10 µM H2DCF‐DA for 30 min in the cell culture incubator. To remove the unincorporated dye, the cells were washed with PBS and the oxidation of H2DCF‐DA was detected by CLSM.

[12] = pH between 8.0 and 9.4; cited from earlier work
Excerpt: Herb‐derived natural products are regarded as promising drug resources due to their anti‐inflammatory and antioxidant effects.^[ [11] ^] Rhein (4,5‐dihydroxyanthraquinone‐2‐carboxylic acid), is an anthraquinone and one of the pharmacologically active components extracted from Rheum.^[ [12] ^] […] Due to its good anti‐apoptotic and anti‐inflammatory effects, rhein has also been used to treat ischemia/reperfus ...

[13] = day 7 after single intravitreal injection of Rh-GFFYE, retina homogenate
[14] = 7 days after intravitreal injection, n = 6

## O=C(O)CC[C@H](NC(=O)[C@H](Cc1ccc(O)cc1)NC(=O)[C@H](Cc1ccccc1)NC(=O)[C@H](Cc1ccccc1)NC(=O)CNC(=O)c1cc(O)c2c(c1)C(=O)c1cccc(O)c1C2=O)C(=O)O [Rh‐GFFYE] (X1-GFFYE-OH)
R28 cells [1]
  toxicity on R28 cells (ATP and LDH levels): no toxic effect
[2]
  uptake in ischemic retina compared with control non‐ischemic eyes: increased
[3]; 21 d after single intravitreal injection
  concentration of rhein in retina at 21 d relative to day 7: approximately one‐quarter of that at day 7
[3]; [13]
  concentration of rhein in the ischemic retina: 27.1 ng/g
  concentration of rhein in the normal retina: 15.2 ng/g
[4]; 7 d after intravitreal injection
  morphology of the retina (H&E): no significant change
[4]; 7 d after intravitreal injection, vs normal group, n = 6
  retinal function (ERG) of normal rats: not significantly changed
[4]; [14]
  serum content of alanine aminotransferase (ALT): did not show intergroup differences
  serum content of aspartate aminotransferase (AST): did not show intergroup differences
[4]; H&E, 7 days after intravitreal injection
  histological structures of main visceral organs (heart, liver, spleen, lung, kidney): did not induce noticeable histological changes
Rat model of RIR injury [5]
  amplitudes of the oscillatory potentials (OPs): recovered
  scotopic ERG a and b wave amplitudes: significant recovery

## Nap‐GFFYE [control peptide compound in which rhein is replaced with 1‐naphthylacetic acid (Nap)]
R28 cells [6]
  recovery of cell viability (ATP content) under OGD: no restorative effect
R28 cells [7]
  mitochondrial membrane potential (ΔΨm) under OGD: no recovery
[8]
  anti‐inflammatory effect (release of IL‐1β and IL‐6): did not show anti‐inflammatory effects
Rat model of RIR injury [9]
  IPL thickness after RIR injury: did not ameliorate
Rat model of RIR injury [10]
  number of RGCs (BRN3A positive) compared with Saline group: No significant differences

## O=C(O)c1cc(O)c2c(c1)C(=O)c1cccc(O)c1C2=O [rhein, 4,5‐dihydroxyanthraquinone‐2‐carboxylic acid]
R28 cells [6]
  recovery of cell viability (ATP content) under OGD: no restorative effect
R28 cells [11]
  intracellular ROS level under OGD: significant ROS inhibition
R28 cells [7]
  mitochondrial membrane potential (ΔΨm) under OGD: recovered
[8]
  anti‐inflammatory effect (release of IL‐1β and IL‐6): reduced the release of these two inflammatory cytokines to some extent
[12]
  concentration at which rhein self‐assembles into a translucent hydrogel: 14100 µM
